{"source": "patent US7754716B2", "about": "“Combination comprising a vasculostatic compound and an alkylating agent for the treatment of a tumor” (Novartis AG, priority 2002, dated 2010)", "test_system": "recurrent glioblastoma", "experiment": "Treatment of a patient with recurrent glioblastoma with temozolomide plus PTK787", "type": "in vivo, human", "settings": "one patient with histologically confirmed recurrent glioblastoma; temozolomide 50 mg/m^2 daily for 5 consecutive days every 28 days in addition to continuous daily dose of 1000 mg PTK787; observed during the third cycle", "description": "Suitable clinical studies are, for example, randomized, double-blind, placebo-controlled, parallel studies in patients with recurrent glioblastoma, but also dose escalation studies. […] Tumor assessment in the form of dynamic contrast-enhanced MRI is also a suitable approach to determine the effect of the COMBINATION OF THE INVENTION. In a suitable study design, patients are receiving, for example, temozolomide in a dosage of 50 to 250 mg/m^2 daily, for example, 200 mg/m^2 daily, for 5 consecutive days every 28 days or placebo in addition to a continuous daily dose of 500 to 2000 mg of a compound of formula I, e.g., 500, 1000, 1500 or 2000 mg of PTK787 or placebo."}
{"smiles": "Clc1ccc(Nc2nnc(Cc3ccncc3)c3ccccc23)cc1", "note": "[PTK787]", "values": [{"measurement": "disease status observed under treatment", "value": "stable disease"}]}
